Active and inactive are the calls of the source. How the calls were made is not given here.

For the data set, the system named is CCRIS mutagenicity, Ames/micronucleus/aberration tests. In words: CCRIS mutagenicity studies.
Where [1] appears, read: Test System: AMES SALMONELLA TYPHIMURIUM, Strain/Indicator: TA1535, Metabolic Activation: NONE, Method: PREINCUBATION
[2] abbreviates: Test System: AMES SALMONELLA TYPHIMURIUM, Strain/Indicator: TA98, Metabolic Activation: HAMSTER, LIVER, S-9, AROCLOR 1254 (10%), Method: PREINCUBATION
The mark [3] stands for this setting: Test System: AMES SALMONELLA TYPHIMURIUM, Strain/Indicator: TA98, Metabolic Activation: NONE, Method: PREINCUBATION
Where [4] appears, read: Test System: AMES SALMONELLA TYPHIMURIUM, Strain/Indicator: TA98, Metabolic Activation: RAT, LIVER, S-9, AROCLOR 1254 (10%), Method: PREINCUBATION
[5] abbreviates: Test System: AMES SALMONELLA TYPHIMURIUM, Strain/Indicator: TA100, Metabolic Activation: HAMSTER, LIVER, S-9, AROCLOR 1254 (10%), Method: PREINCUBATION
Setting [6] is: Test System: AMES SALMONELLA TYPHIMURIUM, Strain/Indicator: TA100, Metabolic Activation: NONE, Method: PREINCUBATION
[7] abbreviates: Test System: AMES SALMONELLA TYPHIMURIUM, Strain/Indicator: TA100, Metabolic Activation: RAT, LIVER, S-9, AROCLOR 1254 (10%), Method: PREINCUBATION
Setting [8] is: Test System: AMES SALMONELLA TYPHIMURIUM, Strain/Indicator: TA1535, Metabolic Activation: HAMSTER, LIVER, S-9, AROCLOR 1254 (10%), Method: PREINCUBATION
[9] abbreviates: Test System: AMES SALMONELLA TYPHIMURIUM, Strain/Indicator: TA1535, Metabolic Activation: RAT, LIVER, S-9, AROCLOR 1254 (10%), Method: PREINCUBATION
[10] abbreviates: Test System: AMES SALMONELLA TYPHIMURIUM, Strain/Indicator: TA1537, Metabolic Activation: HAMSTER, LIVER, S-9, AROCLOR 1254 (10%), Method: PREINCUBATION
Setting [11] is: Test System: AMES SALMONELLA TYPHIMURIUM, Strain/Indicator: TA1537, Metabolic Activation: NONE, Method: PREINCUBATION
Where [12] appears, read: Test System: AMES SALMONELLA TYPHIMURIUM, Strain/Indicator: TA1537, Metabolic Activation: RAT, LIVER, S-9, AROCLOR 1254 (10%), Method: PREINCUBATION

As for `CC(=O)OCN(C)N=O`, the mutagenic call is “active; positive” (Test System: AMES SALMONELLA TYPHIMURIUM, Strain/Indicator: TA100, Metabolic Activation: HAMSTER, LIVER, CYTOSOL, Method: PREINCUBATION); “active; positive” (Test System: AMES SALMONELLA TYPHIMURIUM, Strain/Indicator: TA100, Metabolic Activation: HAMSTER, LIVER, CYTOSOL, Method: STANDARD PLATE); “active; positive” (Test System: AMES SALMONELLA TYPHIMURIUM, Strain/Indicator: TA104, Metabolic Activation: HAMSTER, LIVER, CYTOSOL, Method: PREINCUBATION); “active; positive” (Test System: AMES SALMONELLA TYPHIMURIUM, Strain/Indicator: TA104, Metabolic Activation: HAMSTER, LIVER, CYTOSOL, Method: STANDARD PLATE); “active; positive” under setting [1]; “active; positive” (Test System: UDS RAT UROTHELIAL CELLS, Strain/Indicator: THY INCORP, Metabolic Activation: NONE).
`O=C1C=C(O)c2ccccc2C1=O`: the mutagenic call is “inactive; negative” under setting [2]; “inactive; negative” under setting [3]; “inactive; negative” under setting [4]; “inactive; negative” (Test System: AMES SALMONELLA TYPHIMURIUM, Strain/Indicator: TA98, Metabolic Activation: RAT, LIVER, S-9, PHENOBARBITAL AND 5,6-BENZOFLAVONE, Method: PREINCUBATION); “inactive; negative” under setting [5]; “inactive; negative” under setting [6]. Also, the mutagenic call reads like this: under setting [7], “inactive; negative”; (Test System: AMES SALMONELLA TYPHIMURIUM, Strain/Indicator: TA100, Metabolic Activation: RAT, LIVER, S-9, PHENOBARBITAL AND 5,6-BENZOFLAVONE, Method: PREINCUBATION) “inactive; negative”; (Test System: AMES SALMONELLA TYPHIMURIUM, Strain/Indicator: TA102, Metabolic Activation: NONE, Method: PREINCUBATION) “inactive; negative”; (Test System: AMES SALMONELLA TYPHIMURIUM, Strain/Indicator: TA102, Metabolic Activation: RAT, LIVER, S-9, PHENOBARBITAL AND 5,6-BENZOFLAVONE, Method: PREINCUBATION) “inactive; negative”; (Test System: AMES SALMONELLA TYPHIMURIUM, Strain/Indicator: TA104, Metabolic Activation: NONE, Method: PREINCUBATION) “inactive; negative”; (Test System: AMES SALMONELLA TYPHIMURIUM, Strain/Indicator: TA104, Metabolic Activation: RAT, LIVER, S-9, PHENOBARBITAL AND 5,6-BENZOFLAVONE, Method: PREINCUBATION) “inactive; negative”. Besides, the mutagenic call was “inactive; negative” under setting [8]; “inactive; negative” under setting [1]; “inactive; negative” under setting [9]; “inactive; negative” (Test System: AMES SALMONELLA TYPHIMURIUM, Strain/Indicator: TA1535, Metabolic Activation: RAT, LIVER, S-9, PHENOBARBITAL AND 5,6-BENZOFLAVONE, Method: PREINCUBATION); “inactive; negative” under setting [10]; “inactive; negative” under setting [11]. Besides, the mutagenic call under setting [12] was “active; positive”; the mutagenic call (Test System: AMES SALMONELLA TYPHIMURIUM, Strain/Indicator: TA1537, Metabolic Activation: RAT, LIVER, S-9, PHENOBARBITAL AND 5,6-BENZOFLAVONE, Method: PREINCUBATION) is “inactive; negative”; the mutagenic call (Test System: AMES SALMONELLA TYPHIMURIUM, Strain/Indicator: TA1538, Metabolic Activation: NONE, Method: PREINCUBATION) is “inactive; negative”; the mutagenic call (Test System: AMES SALMONELLA TYPHIMURIUM, Strain/Indicator: TA1538, Metabolic Activation: RAT, LIVER, S-9, PHENOBARBITAL AND 5,6-BENZOFLAVONE, Method: PREINCUBATION) was “inactive; negative”; the mutagenic call (Test System: AMES SALMONELLA TYPHIMURIUM, Strain/Indicator: TA2637, Metabolic Activation: NONE, Method: PREINCUBATION) was “inactive; negative”; the mutagenic call (Test System: AMES SALMONELLA TYPHIMURIUM, Strain/Indicator: TA2637, Metabolic Activation: RAT, LIVER, S-9, PHENOBARBITAL AND 5,6-BENZOFLAVONE, Method: PREINCUBATION) is “inactive; negative”.
For `O=S(=O)(O)c1ccc(-c2nnc(-c3ccccn3)nc2-c2ccc(S(=O)(=O)O)cc2)cc1`, the mutagenic call is “inactive; negative” (Test System: Mouse lymphoma, Strain/Indicator: L5178Y (tk+/tk-), Metabolic Activation: None, Method: Suspension/plate) and “inactive; negative” (Test System: Mouse lymphoma, Strain/Indicator: L5178Y (tk+/tk-), Metabolic Activation: Rat, Liver, S-9, Aroclor 1254, Method: Suspension/plate).
With `CC(C)CNCC(C)C`, the mutagenic call by setting is: under setting [2], “inactive; negative”; under setting [3], “inactive; negative”; under setting [4], “inactive; negative”; under setting [5], “inactive; negative”; under setting [6], “inactive; negative”; under setting [7], “inactive; negative”. Besides, the mutagenic call by setting is: under setting [8], “inactive; negative”; under setting [1], “inactive; negative”; under setting [9], “inactive; negative”; under setting [10], “inactive; negative”; under setting [11], “inactive; negative”; under setting [12], “inactive; negative”.
As to `COc1ccc(N=Nc2ccc(N(C)C)cc2)cc1`, the mutagenic call by setting is: (Test System: AMES SALMONELLA TYPHIMURIUM, Strain/Indicator: TA98, Metabolic Activation: NONE, Method: STANDARD PLATE) “active; positive”; (Test System: AMES SALMONELLA TYPHIMURIUM, Strain/Indicator: TA98, Metabolic Activation: RAT LIVER S-9, AROCLOR 1254, Method: STANDARD PLATE) “active; positive”; (Test System: AMES SALMONELLA TYPHIMURIUM, Strain/Indicator: TA1538, Metabolic Activation: NONE, Method: STANDARD PLATE) “active; positive”; (Test System: AMES SALMONELLA TYPHIMURIUM, Strain/Indicator: TA1538, Metabolic Activation: RAT LIVER S-9, AROCLOR 1254, Method: STANDARD PLATE) “active; positive”.
Take `Nc1ccn([C@@H]2O[C@H](CO)[C@@H](O)C2(F)F)c(=O)n1`: the mutagenic call is, setting by setting: (End Point: CHROMOSOMAL ABERRATIONS, Test System: BONE MARROW, Species: MOUSE, Strain/Sex: SWISS/MALE, FEMALE, Route: INTRAPERITONEAL) “active; positive (structural changes)”; (End Point: IN VITRO CHROMOSOMAL ABERRATIONS, Test System: HUMAN PERIPHERAL LYMPHOCYTES, Metabolic Activation: NONE) “active; positive; (structural changes: breaks, fragments)”; (End Point: IN VITRO CHROMOSOMAL ABERRATIONS, Test System: HUMAN PERIPHERAL LYMPHOCYTES, Strain/Sex: MALE, FEMALE, Metabolic Activation: NONE) “active; positive (structural changes)”; (End Point: MICRONUCLEUS, Test System: BONE MARROW, Species: MOUSE, Strain/Sex: SWISS/MALE, FEMALE, Route: INTRAPERITONEAL) “active; positive”.

Values taken from PubChem BioAssay AID1259407 (Chemical Carcinogenesis Research Information System (CCRIS), 2018).
